Measurements published in patent US8921417B2, “Method of treating dyslipidemia using naturally occurring diterpene” (Council of Scientific & Industrial Research, priority 2008, dated 2014).
Marks after values point to notes of the source that are not given here.

Test system: high fat diet (HFD)-fed dyslipidemic hamsters
Experiment: Antidyslipidemic activity in high fat diet (HFD)-fed dyslipidemic hamster model
Assay type: in vivo, golden Syrian hamsters
Details: for GLY, percent change with respect to HFD-fed hamster group / HDL/TC, percent change with respect to HFD-fed hamster group / TC, percent change with respect to HFD-fed hamster group / TG, percent change with respect to HFD-fed hamster group / LDL, percent change with respect to HFD-fed hamster group: plasma; for antidyslipidemic activity (in words): different doses (5, 10, 25, 50, 100 mg/kg) of body weight
Excerpt: Male golden Syrian hamsters weighing 110-120 g were divided into hyperlipidemic and hyperlipidemic plus drug-treated groups. Each group consisted of eight animals. Hyperlipidemia was produced by feeding with a high fat diet (HFD). Hyperlipidemic hamsters had free access to the HFD and water ad lib during the entire period of the experiment. The test samples were given orally at the dose mentioned using water as a drug vehicle from day 4 to day 10 (7 days) in the HFD fed hamsters.
Normal hamsters fed with the HFD and given the drug vehicle (water) only served as control animals. Body weight and diet intake of each animal group was recorded daily to check the effect of the drug on food intake and body weight of the animals. At the end of the experiment, i.e., on the 10th day, the blood of the non-fasted animals was withdrawn in EDTA coated tubes and the tubes were cooled to 4° C. for 15 min. The cold plasma was separated and biological analysis of the plasma was performed on the same day using commercially available enzymatic diagnostic kits for triglycerides (TG), total cholesterol (TC), high density lipoprotein (HDL), glycerol (GLY) and low density lipoprotein (LDL) using a Synchron CX-5 Clinical System, Beckmann Coulter Instrument. The data was analyzed for its significance on Prism Software.

[1] = dose 25 mg/kg body weight, oral, 7 days
[2] = dose 50 mg/kg body weight, oral, 7 days
[3] = dose 100 mg/kg body weight, oral, 7 days

SMILES: CC(C)c1c(C(=O)Nc2ccccc2)c(-c2ccccc2)c(-c2ccc(F)cc2)n1CC[C@@H](O)C[C@@H](O)CC(=O)O [Atorvastatin, reference compound]
- increase of HDL/TC (dose 10 mg/kg): 35%
- lowering of Gly (dose 10 mg/kg): 52%
- lowering of TC (dose 10 mg/kg): 14%
- lowering of TG (dose 10 mg/kg): 63%
- GLY, percent change with respect to HFD-fed hamster group (dose 10 mg/kg p.o., 7 days): −52* %
- HDL/TC, percent change with respect to HFD-fed hamster group (dose 10 mg/kg p.o., 7 days): +35%
- TC, percent change with respect to HFD-fed hamster group (dose 10 mg/kg p.o., 7 days): −14%
- TG, percent change with respect to HFD-fed hamster group (dose 10 mg/kg p.o., 7 days): −63*** %

SMILES: CC1=CCC[C@@H]2[C@@](C)(CCC3=CC(=O)O[C@@H]3O)[C@H](C)CC[C@@]12C [Compound 1, 16α-hydroxycleroda-3,13(14)Z-dien-15,16-olide]
- antidyslipidemic activity (in words) (listed as compound having formula (1)): significant antidyslipidemic activity
- antidyslipidemic activity (in words) (listed as pure isolated compound from the hexane extract): significantly decreased serum TG, total cholesterol (TC), and glycerol (Gly), accompanied by increase in HDL-C/TC ratio
- GLY, percent change with respect to HFD-fed hamster group (dose 5 mg/kg p.o., 7 days): −10%
- HDL/TC, percent change with respect to HFD-fed hamster group (dose 5 mg/kg p.o., 7 days): +12%
- TC, percent change with respect to HFD-fed hamster group (dose 5 mg/kg p.o., 7 days): −27* %
- TG, percent change with respect to HFD-fed hamster group (dose 5 mg/kg p.o., 7 days): −19%
- GLY, percent change with respect to HFD-fed hamster group (dose 10 mg/kg p.o., 7 days): −5%
- HDL/TC, percent change with respect to HFD-fed hamster group (dose 10 mg/kg p.o., 7 days): +12%
- TC, percent change with respect to HFD-fed hamster group (dose 10 mg/kg p.o., 7 days): −23* %
- TG, percent change with respect to HFD-fed hamster group (dose 10 mg/kg p.o., 7 days): −26*** %
- increase of HDL/TC [1]: 36%
- lowering of Low density lipoproteins (LDL) [1]: 49%
- lowering of glycerol (Gly) [1]: 51%
- lowering of total cholesterol (TC) [1]: 46%
- lowering of serum TG (dose 25 mg/kg body weight, oral, 7 days, listed as compound of formula (1), 25 mg/kg): 51%
- lowering of serum TG (dose 25 mg/kg body weight, oral, 7 days, listed as the compound, 25 mg/kg): up to 51%
- GLY, percent change with respect to HFD-fed hamster group (dose 25 mg/kg p.o., 7 days): −51*** %
- HDL/TC, percent change with respect to HFD-fed hamster group (dose 25 mg/kg p.o., 7 days): +36%
- LDL, percent change with respect to HFD-fed hamster group (dose 25 mg/kg p.o., 7 days): −49* %
- TC, percent change with respect to HFD-fed hamster group (dose 25 mg/kg p.o., 7 days): −46** %
- TG, percent change with respect to HFD-fed hamster group (dose 25 mg/kg p.o., 7 days): −51*** %
- increase of HDL/TC [2]: 54%
- lowering of Low density lipoproteins (LDL) [2]: 41%
- lowering of glycerol (Gly) [2]: 48%
- lowering of serum TG [2]: 46%
- lowering of total cholesterol (TC) [2]: 55%
- GLY, percent change with respect to HFD-fed hamster group (dose 50 mg/kg p.o., 7 days): −48** %
- HDL/TC, percent change with respect to HFD-fed hamster group (dose 50 mg/kg p.o., 7 days): +54%
- LDL, percent change with respect to HFD-fed hamster group (dose 50 mg/kg p.o., 7 days): −41* %
- TC, percent change with respect to HFD-fed hamster group (dose 50 mg/kg p.o., 7 days): −55*** %
- TG, percent change with respect to HFD-fed hamster group (dose 50 mg/kg p.o., 7 days): −46** %
- increase of HDL/TC [3]: 46%
- lowering of Low density lipoproteins (LDL) [3]: 65%
- lowering of glycerol (Gly) [3]: 43%
- lowering of serum TG [3]: 43%
- lowering of total cholesterol (TC) [3]: 54%
- GLY, percent change with respect to HFD-fed hamster group (dose 100 mg/kg p.o., 7 days): −43*** %
- HDL/TC, percent change with respect to HFD-fed hamster group (dose 100 mg/kg p.o., 7 days): +46%
- LDL, percent change with respect to HFD-fed hamster group (dose 100 mg/kg p.o., 7 days): −65*** %
- TC, percent change with respect to HFD-fed hamster group (dose 100 mg/kg p.o., 7 days): −54*** %
- TG, percent change with respect to HFD-fed hamster group (dose 100 mg/kg p.o., 7 days): −43** %
- increase of HDL/TC ratio (over the dose range 5 to 100 mg/kg body weight): up to 54%
- reduction of total cholesterol (TC) (over the dose range 5 to 100 mg/kg, listed as compound of formula (1)): up to 55%

SMILES: CC[C@H](C)C(=O)O[C@H]1C[C@@H](C)C=C2C=C[C@H](C)[C@H](CC[C@@H]3C[C@@H](O)CC(=O)O3)[C@H]21 [Lovastatin, reference compound]
- increase of HDL/TC [1]: 12%
- lowering of glycerol (Gly) [1]: 35%
- lowering of serum TG [1]: 29%
- lowering of total cholesterol (TC) [1]: 9%
- GLY, percent change with respect to HFD-fed hamster group (dose 25 mg/kg p.o., 7 days): −35%
- HDL/TC, percent change with respect to HFD-fed hamster group (dose 25 mg/kg p.o., 7 days): +12%
- TC, percent change with respect to HFD-fed hamster group (dose 25 mg/kg p.o., 7 days): −9%
- TG, percent change with respect to HFD-fed hamster group (dose 25 mg/kg p.o., 7 days): −29%

SMILES: CC(C)OC(=O)C(C)(C)Oc1ccc(C(=O)c2ccc(Cl)cc2)cc1 [fenofibrate, reference compound]
- increase of HDL-C/TC (dose 108 mg/kg body weight): 10%
- lowering of Gly (dose 108 mg/kg body weight): 36%
- lowering of TC (dose 108 mg/kg body weight): 18%
- lowering of TG (dose 108 mg/kg body weight): 42%
